Consider one compound from patent US11759436B2, “Dosage regimen of an S1P receptor modulator” (Novartis AG, priority 2009, dated 2023).

Data set [1] concerns Patients with moderate asthma. Put plainly: Study of FTY720 vs placebo in patients with moderate asthma (pulmonary function tests, safety). Type of data set: in vivo, human. The conditions noted are these: daily dosage of 0.5 mg, 10 day treatment. Here is the method:
Patients with moderate asthma are divided into 3 dosing cohorts of 12 patients each. In each cohort, the 12 patients are randomized to FTY720 (0.5 mg, 1.25 mg, and 2.5 mg in cohorts 1, 2, and 3 respectively) or placebo in a 3:1 ratio resulting in 9 patients treated with FTY720 at each dose level and 9 patients treated with placebo. The study consists of a screening period of between 12 and 26 days, baseline and a 10 day treatment period followed by a study completion evaluation (performed 1-7 days after the last dose). Two screening visits are performed, the initial Screening visit and a second visit at Day −7 (+/−1 day). […] Short-acting […] agonist use prior to treatment with study medication is also recorded in this 14 day period. […] PFT profiling is assessed at 7 time points during the visit and routine baseline evaluations are performed. On Day 1, patients are randomized in a 3:1 ratio to FTY720 or placebo and PFT profiling is assessed at 8 time points (namely pre-dose, then at 1, 2, 3, 4, 5, 6 and 12 hours post-dose). PFT assessments are also performed on Days 2, 3, 7 (all single time points assessed at approximately the same clock time as the 6 hours post-dose PFT on Day 1) and Day 10 (7 time points, namely pre-dose and then at 1, 2, 3, 4, 5 and 6 hours post-dose). […] The magnitude of the bronchoconstriction is primarily assessed by the baseline-adjusted FEV1 AUC0-6 h on Day 1. […]

The subject of data set [2] is patients with Relapsing-remitting Multiple Sclerosis. Put plainly: Study of oral fingolimod 0.5 mg/day or 1.25 mg/day vs interferon beta1-a in patients with RRMS. Type of data set: in vivo, human. Here is the method:
The patients are seen clinically every month for 3 months and every 3 months thereafter. The Expanded Disability Status Scale (EDSS) is performed every 3 months, the MS Functional Composite (MSFC) every 6 months, and MRI annually. Monitoring by ophthalmic examination, dermatologic examination, pulmonary function tests, chest X-ray and/or CT, Holter monitoring, and echocardiography are performed. Participants who completed 1 year on treatment are offered an optional extension phase.

For data set [3], the system named is Cardiac Rate and Rhythm in Healthy Patients. As to conditions: administration of 1.25 mg of FTY720; healthy subjects; cited from earlier work.
Where [4] appears, read: both fingolimod groups (0.5 and 1.25 mg/day), month 12.

Regarding `CCCCCCCCc1ccc(CCC(N)(CO)CO)cc1.Cl` [Fingolimod, 2-amino-2-[2-(4-octylphenyl)ethyl]propane-1,3-diol], in data set [1], the safety and tolerability result is “safe and well tolerated”. Further, the “proportion of relapse-free patients” value in data set [2] (RRMS patients, fingolimod, dose not stated) amounted to 83%. For the same compound, the “reduction in relapses vs interferon beta1-a” value in data set [2] (RRMS patients, higher dose (1.25 mg/day)) is listed as 38%. The “reduction in relapses vs interferon beta1-a” value in data set [2] (RRMS patients, lower dose (0.5 mg/day)) worked out at 52%. In data set [2] (RRMS patients, oral fingolimod 0.5 mg/day), the Annualized relapse rate worked out at 0.16. In addition, the Annualized relapse rate in data set [2] (RRMS patients, oral fingolimod 1.25 mg/day) stood at 0.20. In data set [2] (setting [4]), the “MRI lesion activity: number of gadolinium-enhancing T1 lesions” value is listed as “reduction” and the “MRI lesion activity: number of new or newly enlarging T2 lesions” value is reported as “reduction”. Further, in data set [2] (fingolimod 0.5 mg/d), the Basal-cell carcinoma was 3 (0.7) n (%), the Breast cancer is given as 2 (0.5) n (%), the Malignant melanoma was 3 (0.7) n (%) and the Squamous-cell carcinoma was 0 n (%). Moreover, in data set [2] (fingolimod 1.25 mg/day), the Basal-cell carcinoma is 2 (0.5) n (%), the Breast cancer is 2 (0.5) n (%), the Malignant melanoma is given as 0 n (%) and the Squamous-cell carcinoma is reported as 0 n (%). Also, the “decrease in heart rate” value in data set [3] was “approximately 8 beets/min”.
